The record followed here is US20200078290A1, “Cosmetic Composition Comprising Extract Of Medicinal Herbs As Active Ingredient” (LG Household & Health Care Ltd., priority 2016, published 2020).

Structures are written as SMILES.

Assay [1] deals with human-derived fibroblasts. Kind of assay: Promotion of type 1 collagen synthesis in human fibroblasts (PICP EIA kit). As to conditions: positive control, 52.85 ppm. Format: cell-based. As for the experimental part:
Seven kinds of extracts obtained in Preparation Example 1 were added to culture media of human-derived fibroblasts in order to confirm the effect of promoting type I collagen synthesis at the cellular level. The synthesized collagen was measured and quantitated using a PICP EIA kit (Procollagen Type I C-Peptide Enzyme Immuno Assay Kit). In order to measure the amount of synthesized collagen, the extracts of Examples 1 to 7 were added to the culture media (DMEM medium) of the fibroblasts at final concentrations of 1,000 ppm and 10,000 ppm, and cultured for 48 hours. The culture broth was collected and the degree of type 1 collagen synthesis was measured with a PICP EIA kit at 450 nm using a spectrophotometer. For the comparison of the effects, the degree of collagen synthesis was measured in the same manner for the culture medium of the fibroblasts not treated with the extract (negative control) and the culture medium (positive control) in which vitamin C was added to a final concentration of 52.85 ppm. The rate of increase in collagen production was calculated as a ratio of collagen production relative to negative control, and the results are shown in Table 3 below. The experiments were conducted four times and the results are expressed as an average value.

A further assay relates to RAW264.7 cell line. In words: Inhibition of NO production in LPS-stimulated RAW264.7 cells (GRIESS method). Format: cell-based, mice. The following applies: positive control, 10 ppm, RAW264.7, LPS. The protocol: In order to confirm the anti-inflammatory effect and the skin trouble-improving effect of the seven extracts obtained in Preparation Example 1, an experiment on the inhibition of nitrogen monoxide (NO) formation was conducted by the GRIESS method using RAW264.7 cell line (ATCC number: CRL-2278).
Specifically, RAW264.7 cells, which were macrophages of mice, were subcultured several times, and the cultured cells were put into a 24-well plate at a density of 3×10^5 […], and cultured for 24 hours. Subsequently, the cells were replaced with cell culture media containing the above-mentioned 7 kinds of extracts diluted to concentrations of […]. […] 100 μL of the supernatant was collected and transferred to a 96-well plate, and 100 μL of GRIESS solution was added thereto and reacted at room temperature for 10 minutes, and then the absorbance at 540 nm was measured to determine the NO inhibitory effect of the extracts. The NO production inhibition rate (%) was calculated using the following Calculation Equation 2, and the results are shown in Table 6. The experiments were each carried out three times, and the results are expressed as an average value.
Inhibition Rate of NO Production (%)={(Absorbance of negative control−Absorbance of each extract)/Absorbance of negative control}×100 [Calculation Equation 2]

With `O=C1O[C@H]([C@@H](O)CO)C(O)=C1O` [Vitamin C, vitamin C], the “Increased rate (collagen production relative to negative control)” value in assay [1] was 64.3%. The “Production amount of type 1 collagen” value in assay [1] (average of 4) turned out to be 246.8 ng/mL. Regarding `CNC(=N)NCCC[C@H](N)C(=O)O` [L-NMMA, L-NG-monomethylarginine], in the assay with RAW264.7 cell line, the “Inhibition Rate of NO Production” value turned out to be 41.0%.
